SMILES strings stand for the structures.

For assay [1], the target named is T1, Thyroid hormone receptor alpha (Homo sapiens, UniProt P10827).
T1 sequence (P10827 whole entry): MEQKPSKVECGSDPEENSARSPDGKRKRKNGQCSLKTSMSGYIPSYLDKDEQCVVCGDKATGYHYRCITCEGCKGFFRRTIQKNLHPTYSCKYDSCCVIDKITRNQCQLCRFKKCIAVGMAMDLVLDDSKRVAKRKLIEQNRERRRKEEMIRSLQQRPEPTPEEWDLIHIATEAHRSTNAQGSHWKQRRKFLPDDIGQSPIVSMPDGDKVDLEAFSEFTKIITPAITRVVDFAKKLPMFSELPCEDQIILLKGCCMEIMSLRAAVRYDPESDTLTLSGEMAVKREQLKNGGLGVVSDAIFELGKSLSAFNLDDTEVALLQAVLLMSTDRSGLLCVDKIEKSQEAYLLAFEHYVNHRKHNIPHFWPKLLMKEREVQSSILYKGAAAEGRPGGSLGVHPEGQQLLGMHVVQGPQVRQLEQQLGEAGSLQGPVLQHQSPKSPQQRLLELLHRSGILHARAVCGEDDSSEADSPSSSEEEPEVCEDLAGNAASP
Nature of the assay: Binding affinity to human thyroid hormone receptor alpha 1.

The target of assay [2] is T2, Thyroid hormone receptor beta (Homo sapiens, UniProt P10828).
T2 sequence (P10828 whole entry): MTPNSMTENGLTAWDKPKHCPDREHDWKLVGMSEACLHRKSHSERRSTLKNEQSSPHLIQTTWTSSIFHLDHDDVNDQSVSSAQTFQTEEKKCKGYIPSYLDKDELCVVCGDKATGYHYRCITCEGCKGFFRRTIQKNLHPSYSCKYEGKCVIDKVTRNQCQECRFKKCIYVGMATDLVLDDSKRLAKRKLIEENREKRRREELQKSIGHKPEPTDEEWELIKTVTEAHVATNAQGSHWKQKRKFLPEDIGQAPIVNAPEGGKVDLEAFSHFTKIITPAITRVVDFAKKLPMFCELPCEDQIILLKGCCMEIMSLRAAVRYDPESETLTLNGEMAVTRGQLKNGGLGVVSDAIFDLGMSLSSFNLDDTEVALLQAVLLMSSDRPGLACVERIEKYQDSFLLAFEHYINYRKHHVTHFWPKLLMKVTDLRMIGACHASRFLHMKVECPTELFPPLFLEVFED
Nature of the assay: Binding affinity to human thyroid hormone receptor beta 1.

In assay [3] the target is Thyroid hormone receptor (Homo sapiens) (UniProt P10827+P10828). Put plainly: Selectivity for human thyroid hormone receptor beta 1 over thyroid hormone receptor alpha 1. It counts as protein-complex assay.

As a reminder, the IC50 is the concentration needed to halve the response being measured. High values mean weaker potency in that assay, low ones greater potency in that assay. Take `CC(C)C(=O)Nc1ccc(Oc2c(Cl)cc(CC(=O)O)cc2Cl)cc1Br`: the figures for the IC50 in assay [1] and in assay [2] were 0.63 µM and 0.018 µM, respectively. Besides, the Ratio IC50 in assay [3] was 21.
The like results for `CCCC(C)C(=O)Nc1ccc(Oc2c(Cl)cc(CC(=O)O)cc2Cl)cc1Br` (stereo not drawn) were, in that order, 1.3 µM, 0.047 µM and 16.
The matching figures for `CCC(C)C(=O)Nc1ccc(Oc2c(Cl)cc(CC(=O)O)cc2Cl)cc1Br` (stereo not drawn): 0.24 µM, 0.0043 µM and 33.
The like results for `CCCC(CCC)C(=O)Nc1ccc(Oc2c(Cl)cc(CC(=O)O)cc2Cl)cc1Br` were, in that order, 1.2 µM, 0.045 µM and 16.
Take `CCC(CC)C(=O)Nc1ccc(Oc2c(Cl)cc(CC(=O)O)cc2Cl)cc1Br`: the IC50 was determined as 0.61 µM in assay [1] and 0.016 µM in assay [2]. For the same compound, the Ratio IC50 in assay [3] was determined as 22.
Take `CCC(=O)Nc1ccc(Oc2c(Cl)cc(CC(=O)O)cc2Cl)cc1Br`: the IC50 in assay [1] amounted to 3.3 µM; in assay [2], 0.14 µM. The Ratio IC50 in assay [3] turned out to be 14.

For the origin of these results see ChEMBL document CHEMBL1149453, “Thyroid receptor ligands. Part 4: 4'-amido bioisosteric ligands selective for the thyroid hormone receptor beta” (Bioorg Med Chem Lett, 2006).
